Test results: patent publication US11999732B2, “P2X3 receptor antagonists” (RECORDATI INDUSTRIA CHIMICA E FARMACEUTICA SPA, priority 2018, dated 2024)
Like-named read-outs stand apart in the source and are kept apart here. Each block holds one molecule with its values, some of them ahead of it.

Molecular target: T1, human P2X3 receptor (Homo sapiens, UniProt P56373)
T1 construct: expressed in transfected cells; host or cells: CHO-K1
T1 sequence (P56373 1-397): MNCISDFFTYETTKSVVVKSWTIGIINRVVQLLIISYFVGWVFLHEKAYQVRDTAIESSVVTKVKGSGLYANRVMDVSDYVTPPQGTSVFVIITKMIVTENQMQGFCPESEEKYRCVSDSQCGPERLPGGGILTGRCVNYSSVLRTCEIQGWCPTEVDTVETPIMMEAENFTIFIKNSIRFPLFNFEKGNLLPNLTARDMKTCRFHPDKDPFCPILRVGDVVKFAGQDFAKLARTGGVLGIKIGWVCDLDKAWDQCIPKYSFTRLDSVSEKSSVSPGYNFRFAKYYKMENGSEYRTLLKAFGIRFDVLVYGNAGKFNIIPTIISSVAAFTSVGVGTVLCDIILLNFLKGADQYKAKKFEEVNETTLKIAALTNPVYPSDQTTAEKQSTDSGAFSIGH
Assay: Calcium luminescence (photoprotein) assay in CHO-K1 cells co-expressing human P2X3 receptor, α,β-Met-ATP stimulation, FLEXSTATION readout
Assay type: cell-based
Summary of the method: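 CHO-K1 cells co-expressing human P2X3 and a Ca2+-sensitive photoprotein, loaded with coelenterazine in Tyrode's buffer (pH 7.4) for 4 h at 37 °C. Compounds injected 4 min before α,β-Met-ATP stimulation; luminescence recorded, IC50 and pseudo-Hill slope from nonlinear regression of inhibition curves.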

[1] = Table 7, human P2X3 receptor antagonist activity, CHO-K1 cells, α,β-Met-ATP, read-out: h-P2X3 IC50
[2] = Table 6, human P2X3 receptor antagonist activity, CHO-K1 cells, α,β-Met-ATP, read-out: h-P2X3 IC50
[3] = Table 8, human P2X3 receptor antagonist activity, CHO-K1 cells, α,β-Met-ATP, read-out: h-P2X3 IC50
[4] = Table 9, human P2X3 receptor antagonist activity, CHO-K1 cells, α,β-Met-ATP, read-out: h-P2X3 IC50

Structure (SMILES): Cc1ccc(Cn2c(=O)n3cc(CC(C)C)nc3c3ncccc32)cc1 [Example 72, 6-(4-methylbenzyl)-2-(2-methylpropyl)imidazo[1,2-c]pyrido[2,3-e]pyrimidin-5(6H)-one]
IC50 [1]: 1390 nM

Structure (SMILES): COc1cc(Cn2c(=O)n3c(C)c(C(C)C)nc3c3ncc(N4CCN(C(C)=O)CC4)cc32)cc(OC)c1 [Example 84, 8-(4-acetylpiperazin-1-yl)-6-(3,5-dimethoxybenzyl)-3-methyl-2-(propan-2-yl)imidazo[1,2-c]pyrido[2,3-e]pyrimidin-5(6H)-one]
IC50 [1]: 259 nM

Structure (SMILES): O=C1N2CC(CC3CCCCC3)N=C2c2ncc(N3CCOCC3)cc2N1Cc1ccc(Cl)cc1 (stereo not shown) [Example 61, 6-(4-chlorobenzyl)-2-(cyclohexylmethyl)-8-(morpholin-4-yl)-2,6-dihydroimidazo[1,2-c]pyrido[2,3-e]pyrimidin-5(3H)-one]
IC50 [2]: 1080 nM

Structure (SMILES): CCc1c(C)nc2c3ncc(NCC4COC4)cc3n(Cc3cc(OC)cc(OC)c3)c(=O)n12 [Example 77, 6-(3,5-dimethoxybenzyl)-3-ethyl-2-methyl-8-{[(oxetan-3-yl)methyl]amino}imidazo[1,2-c]pyrido[2,3-e]pyrimidin-5(6H)-one]
IC50 [1]: 239 nM

Structure (SMILES): Cc1c(C(C)C)nc2c3ncc(N4CC5(COC5)C4)cc3n(Cc3ccc(Cl)cc3)c(=O)n12 [Example 91, 6-(4-chlorobenzyl)-3-methyl-8-(2-oxa-6-azaspiro[3.3]heptan-6-yl)-2-(propan-2-yl)imidazo[1,2-c]pyrido[2,3-e]pyrimidin-5(6H)-one]
IC50 [1]: 507 nM

Structure (SMILES): COc1cc(CN2C(=O)N3CC(C(C)C)N=C3c3ncc(NC4CCOCC4)cc32)cc(OC)c1 (stereo not shown) [Example 49, 6-(3,5-dimethoxybenzyl)-2-(propan-2-yl)-8-(tetrahydro-2H-pyran-4-ylamino)-2,6-dihydroimidazo[1,2-c]pyrido[2,3-e]pyrimidin-5(3H)-one]
IC50 [2]: 872 nM

Structure (SMILES): CC(C)CCC1CN2C(=O)N(Cc3ccc(Cl)cc3)c3cc(N4CCOCC4)cnc3C2=N1 (stereo not shown) [Example 62, 6-(4-chlorobenzyl)-2-(3-methylbutyl)-8-(morpholin-4-yl)-2,6-dihydroimidazo[1,2-c]pyrido[2,3-e]pyrimidin-5(3H)-one]
IC50 [2]: 720 nM

Structure (SMILES): COc1cc(Cn2c(=O)n3c(C)c(C)nc3c3ncc(N4CCOCC4)cc32)cc(OC)c1 [Example 82, 6-(3,5-dimethoxybenzyl)-2,3-dimethyl-8-(morpholin-4-yl)imidazo[1,2-c]pyrido[2,3-e]pyrimidin-5(6H)-one]
IC50 [1]: 332 nM

Structure (SMILES): COc1cc(Cn2c(=O)n3c(C)c(C)nc3c3ncc(N4CC5(COC5)C4)cc32)cc(OC)c1 [Example 81, 6-(3,5-dimethoxybenzyl)-2,3-dimethyl-8-(2-oxa-6-azaspiro[3.3]heptan-6-yl)imidazo[1,2-c]pyrido[2,3-e]pyrimidin-5(6H)-one]
IC50 [1]: 269 nM

Structure (SMILES): COc1cc(CN2C(=O)N3CC(C(C)C)N=C3c3ncc(C(=O)N4CCOCC4)cc32)cc(OC)c1 (stereo not shown) [Example 60, 6-(3,5-dimethoxybenzyl)-8-(morpholin-4-ylcarbonyl)-2-(propan-2-yl)-2,6-dihydroimidazo[1,2-c]pyrido[2,3-e]pyrimidin-5(3H)-one]
IC50 [2]: 1100 nM

Structure (SMILES): COc1cc(CN2C(=O)N3CC(C)N=C3c3ncc(N4CCOCC4)cc32)cc(OC)c1 (stereo not shown) [Example 3]
IC50 [2]: 1160 nM

Structure (SMILES): COCC1CN=C2c3ncc(N4CCOCC4)cc3N(Cc3ccc(Cl)cc3)C(=O)N21 (stereo not shown) [Example 13, 6-(4-chlorobenzyl)-3-(methoxymethyl)-8-(morpholin-4-y1)-2,6-dihydroimidazo[1,2-c]pyrido[2,3-e]pyrimidin-5(3H)-one]
IC50 [2]: 1260 nM

Structure (SMILES): COc1cc(CN2C(=O)N3CCN=C3c3ncc(N4CCOCC4)cc32)cc(OC)c1 [Example 7, 6-(3,5-dimethoxybenzyl)-8-(morpholin-4-yl)-2,6-dihydroimidazo[1,2-c]pyrido[2,3-e]pyrimidin-5(3H)-one]
IC50 [2]: 1640 nM

Structure (SMILES): COCC1CN2C(=O)N(Cc3ccc(Cl)cc3)c3cc(N4CCOCC4)cnc3C2=N1 (stereo not shown) [Example 11, 6-(4-chlorobenzyl)-2-(methoxymethyl)-8-(morpholin-4-y1)-2,6-dihydroimidazo[1,2-c]pyrido[2,3-e]pyrimidin-5(3H)-one]
IC50 [2]: 358 nM

The remaining lines, values ahead:

IC50 [3]: 544 nM
Structure (SMILES): C=C(C)c1nnc2c3ncc(N4CCOCC4)cc3c(Cc3cc(OC)cc(OC)c3)nn12 [Example 120, 6-(3,5-dimethoxybenzyl)-8-(morpholin-4-yl)-3-(prop-1-en-2-yl)pyrido[2,3-d][1,2,4]triazolo[4,3-b]pyridazine]

IC50 [4]: 2260 nM
Structure (SMILES): CC1(C)CN=C2c3ncc(NCCO)cc3N(Cc3ccc(Cl)cc3)C(=O)N2C1 [Example 143, 5-(4-chlorobenzyl)-3-[(2-hydroxyethyl)amino]-9,9-dimethyl-5,8,9,10-tetrahydro-6H-pyrido[2,3-e]pyrimido[1,2-c]pyrimidin-6-one]

IC50 [3]: 246 nM
Structure (SMILES): COc1ccc(Cc2nn3c(C(C)(C)C)nnc3c3ncc(N4CCOCC4)cc23)cc1 [Example 123, 3-tert-butyl-6-(4-methoxybenzyl)-8-(morpholin-4-yl)pyrido[2,3-d][1,2,4]triazolo[4,3-b]pyridazine]

IC50 [4]: 528 nM
Structure (SMILES): O=c1n(Cc2ccc(Cl)cc2)c2cc(N3CCOCC3)cnc2c2nnc(COC3CCOCC3)n12 [Example 188, 6-(4-chlorobenzyl)-8-(morpholin-4-yl)-3-[(tetrahydro-2H-pyran-4-yloxy)methyl]pyrido[2,3-e][1,2,4]triazolo[4,3-c]pyrimidin-5(6H)-one]

IC50 [3]: 147 nM
Structure (SMILES): CC(C)c1nnc2c3ncc(N4CCOCC4)cc3c(Cc3ccc(Cl)cc3)nn12 [Example 127, 6-(4-chlorobenzyl)-8-(morpholin-4-yl)-3-(propan-2-yl)pyrido[2,3-d][1,2,4]triazolo[4,3-b]pyridazine]

IC50 [3]: 102 nM
Structure (SMILES): CC(C)(C)c1nnc2c3ncc(N4CCOCC4)cc3c(Cc3ccc(Cl)cc3)nn12 [Example 111, 3-tert-butyl-6-(4-chlorobenzyl)-8-(morpholin-4-yl)pyrido[2,3-d][1,2,4]triazolo[4,3-b]pyridazine]

IC50 [3]: 1210 nM
Structure (SMILES): COc1cc(Cc2nn3c(COC(C)C)nnc3c3ncc(N4CCOCC4)cc23)cc(OC)c1 [Example 119, 6-(3,5-dimethoxybenzyl)-8-(morpholin-4-yl)-3-[(propan-2-yloxy)methyl]pyrido[2,3-d][1,2,4]triazolo[4,3-b]pyridazine]

IC50 (running text b1263, read-out: inhibition (human P2X3 receptor)): 20.7 nM
Structure (SMILES): COc1ccc(Cn2c(=O)n3c(C(C)(C)C)nnc3c3ncc(N4CCOCC4)cc32)cc1 [Example 96, 3-tert-butyl-6-(4-methoxybenzyl)-8-(morpholin-4-yl)pyrido[2,3-e][1,2,4]triazolo[4,3-c]pyrimidin-5(6H)-one]

IC50 [3]: 576 nM
Structure (SMILES): COCC1CN(c2cnc3c(c2)c(Cc2ccc(Cl)cc2)nn2c(CC(C)C)nnc32)C1 [Example 128, 6-(4-chlorobenzyl)-8-[3-(methoxymethyl)azetidin-1-yl]-3-(2-methylpropyl)pyrido[2,3-d][1,2,4]triazolo[4,3-b]pyridazine]

IC50 [4]: 4290 nM
Structure (SMILES): COc1cc(CN2C(=O)N3CC(C)(C)N=C3c3ncc(N4CCOCC4)cc32)cc(OC)c1 [Example 161, 6-(3,5-dimethoxybenzyl)-2,2-dimethyl-8-(morpholin-4-yl)-2,6-dihydroimidazo[1,2-c]pyrido[2,3-e]pyrimidin-5(3H)-one]

IC50 [3]: 19.1 nM
Structure (SMILES): CC(c1nnc2c3ncc(N4CCOCC4)cc3c(Cc3ccc(Cl)cc3)nn12)C1CCOCC1 (stereo not shown) [Example 132, 6-(4-chlorobenzyl)-8-(morpholin-4-yl)-3-[1-(tetrahydro-2H-pyran-4-yl)ethyl]pyrido[2,3-d][1,2,4]triazolo[4,3-b]pyridazine]
